These results are taken from patent US20120121546A1, “Method of Producing Progenitor Cells from Differentiated Cells” (priority 2009, published 2012).

The subject of the assay is human dermal fibroblasts. The experiment in a line: Adipogenesis (Oil Red O) of fibroblasts detached with trypsin and seeded at high density. In kind it is cell-based. As to the method:
After incubation for about 12-21 days in adipogenic medium, the medium is removed, and cells are fixed in 10% formaldehyde solution in aqueous phosphate buffer for at least 1 hour. Cells are then washed with 60% isopropanol and stained with a working solution of Oil Red 0 solution (in 60% isopropanol, see below for preparation) for 10 minutes. The cells are then washed several times with water, and destained in 100% isopropanol for 15 minutes. The destain solution is removed and the optical density of the solution is measured at 500-510 nm.
In a this set of experiments for producing cells having the ability to differentiate into different cell types, fibroblasts are either incubated in media without trypsin or containing trypsin and then cultured at different lengths of time under high density conditions of about 100,000 cells per well/plate or at about 3703.7 cells per mm^2 surface area of the well/plate before adherence of the cells in a high density plating medium. The cells produced by this method are then tested for their ability to differentiate into adipocytes, as determined by the accumulation of fat.
Fresh human dermal fibroblasts derived from adult skin or from foreskin are purchased from PromoCell® (Banksia Scientific Company, QLD). […]
Test cells are recovered from culture and seeded at concentrations of about 100,000 cells per well/plate or at about 3703.7 cells per mm^2 surface area of the well/plate before attachment of the cells to the plate/well directly in 200 to 400 μl high density plating medium (e.g., Medium 199 containing 170 nM insulin, 0.5 mM 3-isobutyl-1-methylxanthine, 0.2 mM indomethacin, 1 μM dexamethasone, and 15% rabbit serum) for a time and under conditions sufficient for an optimum number of progenitor cells to be produced e.g., for up to about 24 hours or until adherence is achieved, i.e., a shorter time than required for cells to become adherent and/or as determined by analysis of cell marker expression and/or by the ability of aliquots of cells to subsequently undergo differentiation. […]

For the substance trypsin, the “ability to differentiate into adipocytes” value (detached with 0.12% trypsin, seeded at about 100,000 cells per well in high density plating medium before adherence, then adipogenic medium, cells without trypsin gave no detectable adipocytes) is recorded as “capable of differentiating into adipocytes”. The “optimum time in adipogenic medium for assuming ability to differentiate into adipocytes” value (numbers of fat-producing cells assayed from day 10 to day 21 in adipogenic medium) fell in the range of 10 to 14 days. For the same substance, the “time from incubation with trypsin to high density seeding at which adipocytes are apparent” value (seeding directly into high density plating medium) is at most 6 h.
